# Read-outs that look alike come from different tables or passages of the source.
# What was measured:
# K103N-G190A-RTV = test system: K103N-G190A-RTV
# From the text: (§1) The resistance test vectors containing a functional luciferase gene cassette were constructed and host cells were transfected with the resistance test vector DNA. The resistant test vectors contained patient-derived reverse transcriptase and protease sequences that were either susceptible or resistant to the antiretroviral agents, such as nucleoside reverse transcriptase inhibitors, non-nucleoside reverse transcriptase inhibitors and protease inhibitors. The resistance test vector viral particles produced by transfecting the resistance test vector DNA into host cells, either in the presence or absence of protease inhibitors, were used to infect target host cells grown either in the absence of NRTI or NNRTI or in the presence of increasing concentrations of the drug. The amount of luciferase activity produced in infected target host cells in the presence of drug was compared to the amount of luciferase produced in infected target host cells in the absence of drug. Drug resistance was measured as the amount of drug required to inhibit by 50% the luciferase activity detected in the absence of drug (inhibitory concentration 50%, IC50). The IC50 values were determined by plotting percent drug inhibition vs. log10 drug concentration.
# (§2) Host cells were seeded in 10-cm-diameter dishes and were transfected several days after plating with resistance test vector plasmid DNA and the envelope expression vector. Transfections were performed using a calcium-phosphate precipitation procedure. The cell culture media containing the DNA precipitate was replaced with fresh medium, from one to 24 hours, after transfection. Cell culture media containing resistance test vector viral particles was harvested one to four days after transfection and was passed through a […] filter before being stored at −80° C. HIV capsid protein (p24) levels in the harvested cell culture media were determined by an EIA method as described by the manufacturer (SIAC; Frederick, Md.). Before infection, target cells (293 and 293/T) were plated in cell culture media. Control infections were performed using cell culture media from mock transfections (no DNA) or transfections containing the resistance test vector plasmid DNA without the envelope expression plasmid. One to three or more days after infection the media was removed and cell lysis buffer (Promega) was added to each well. […] The inhibitory effect of the drug was determined using the following equation: […]
# (§3) where RLUluc [drug] is the relative light unit of luciferase activity in infected cells in the presence of drug and RLUluc is the Relative Light Unit of luciferase activity in infected cells in the absence of drug. IC50 values were obtained from the sigmoidal curves that were generated from the data by plotting the percent inhibition of luciferase activity vs. the log10 drug concentration.
# (§4) The K101E, K103N and G190A mutations were introduced alone and in combination into resistance test vectors using the mega-primer method for site-directed mutagenesis (Sakar and Sommar, Ibid.).
# K101E-G190A-RTV = test system: K101E-G190A-RTV
# From the text: as §1, §2, §3, §4
# V106A-V189L-RTV = test: Phenotypic susceptibility assay, V106A-V189L-RTV; assay type: cell-based, HIV-1; settings: site directed mutant
# From the text: as §1
# as §2, with “Md.).” for “Md.). Before infection, target cells (293 and 293/T) were plated in cell culture media. Control infections were performed using cell culture media from mock transfections (no DNA) or transfections containing the resistance test vector plasmid DNA without the envelope expression plasmid. One to three or more days after infection the media was removed and cell lysis buffer (Promega) was added to each well.”
# [1] = test system: K101E-RTV (HIV reverse transcriptase K101E); test: Phenotypic susceptibility assay, K101E-RTV; assay type: cell-based, HIV-1
# From the text: as §1, §2, §3
# The K101E and G190S mutations were introduced alone and in combination into resistance test vectors using the mega-primer method for site-directed mutagenesis (Sakar and Sommar, Ibid.). Resistance test vectors containing the K101E mutation (K101E-RTV), the G190S mutation (G190S-RTV) were then tested using the phenotypic assay described earlier and the results were compared to those determined using a genetically defined resistance test vector that was wild type at positions 101 and 190. […]
# [2] = test system: A98G-RTV (HIV reverse transcriptase A98G)
# From the text: as §1, §2, §3
# [3] = test system: Y188C-RTV (HIV reverse transcriptase Y188C)
# From the text: as §1, §2, §3
# [4] = test system: V108I -RTV (HIV reverse transcriptase V108I)
# From the text: as §1, §2, §3
# [5] = test system: Y181I-RTV (HIV reverse transcriptase Y181I)
# From the text: as §1, §2, §3
# Y181C-A98G-RTV = test system: Y181C-A98G-RTV
# From the text: as §1, §2, §3
# [6] = test system: G190A-RTV (HIV reverse transcriptase G190A); test: Phenotypic susceptibility assay, G190A-RTV; assay type: cell-based, HIV-1
# From the text: as §1, §2
# where RLUluc [drug] is the relative light unit of luciferase activity in infected cells in the presence of drug and RLUluc is the Relative Light Unit of luciferase activity in infected cells in the absence of drug. […]
# [7] = test system: RTV-1033 (patient sample 98-1033); test: Phenotypic susceptibility assay, RTV-1033; assay type: cell-based, HIV-1; settings: RTV-1033, patient-derived pool
# Description: Transfections were performed using a calcium-phosphate precipitation procedure. […] Cell lysates were assayed for luciferase activity (FIG. 3).
# The drug inhibition curves are shown in (FIG. 3).
# A resistance test vector was constructed as described in Example 1 from a patient sample designated 98-1033. […] Isolation of viral RNA and RT/PCR was used to generate a patient derived segment that comprised viral sequences coding for all of PR and aa 1-313 of RT. The PDS was inserted into an indicator gene viral vector to generate resistance test vectors designated RTV-1033 and RTV-757. RTV-1033 and RTV-757 were then tested in a phenotypic assay to determine accurately and quantitatively the level of susceptibility to a panel of anti-retroviral drugs. […] An IC50 was determined for the resistance test vector pool for each drug tested. The pattern of susceptibility to all of the drugs tested was examined and compared to known patterns of susceptibility.
# A98G-G190S-RTV = test: Phenotypic susceptibility assay, A98G-G190S-RTV; assay type: cell-based, HIV-1; settings: values <1 = increased susceptibility
# From the text: as §1
# as §2, with “Md.).” for “Md.). Before infection, target cells (293 and 293/T) were plated in cell culture media. Control infections were performed using cell culture media from mock transfections (no DNA) or transfections containing the resistance test vector plasmid DNA without the envelope expression plasmid. One to three or more days after infection the media was removed and cell lysis buffer (Promega) was added to each well.”
# [8] = printed in the K101E-RTV sentence of b302, second set of values
Compound,fold loss of susceptibility compared to wild type control RTV (K103N-G190A-RTV),fold loss of susceptibility compared to wild type control RTV (K101E-G190A-RTV),fold loss of susceptibility compared to wild type control RTV (V106A-V189L-RTV) [fold],fold loss of susceptibility compared to wild type control RTV ([1]; {}) [fold],fold loss of susceptibility compared to wild type control RTV [2] [fold],fold loss of susceptibility compared to wild type control RTV [3] [fold],fold change in susceptibility compared to wild type control RTV [4] [fold],fold loss of susceptibility compared to wild type control RTV [5] [fold],fold loss of susceptibility compared to wild type control RTV (Y181C-A98G-RTV),change in susceptibility compared to wild type reference RTV [6],change in susceptibility compared to wild type reference RTV ([6]; listed as delviridine),fold decrease in susceptibility (IC50) [7],fold change in susceptibility compared to wild type control RTV (A98G-G190S-RTV),"fold loss of susceptibility compared to wild type control RTV [1, 8] [fold]",fold change in susceptibility compared to wild type control RTV ([6]; site directed mutant) [fold]
CC(C)Nc1cccnc1N1CCN(C(=O)c2cc3cc(NS(C)(=O)=O)ccc3[nH]2)CC1 [delavirdine],40 fold,2 fold,3,5,3,3,1.3,20,240 fold,slightly more susceptible to delavirdine,increased susceptibility,30 fold,0.8 fold,–,–
O=C1Nc2ccc(Cl)cc2[C@@](C#CC2CC2)(C(F)(F)F)O1 [efavirenz],215 fold,120 fold,1,5,3,20,1.7,1.4,7 fold,–,–,200 fold,greater than 250 fold,30,8
Cc1ccnc2c1NC(=O)c1cccnc1N2C1CC1 [nevirapine],greater than 800 fold,greater than 800 fold,50,12,8,30,3,740,greater than 800 fold,markedly less susceptible to nevirapine,–,greater than 800 fold,greater than 800 fold,55,–

# — patent publication US20020094522A1, “Means and methods for monitoring non-nucleoside reverse transcriptase inhibitor antiretroviral therapy and guiding therapeutic decisions in the treatment of HIV/AIDS” (priority 2000, published 2002)
